# Results: US9771337B2, “Neprilysin inhibitors” (THERAVANCE BIOPHARMA R&D IP, LLC, priority 2011, dated 2017)
# Biological target: T1, human NEP (Homo sapiens, UniProt P08473)
# T1 construct: purchased R&D Systems, Minneapolis, Minn; 1182-ZN
# Assay: In vitro enzyme inhibition assay, inhibitor potency at human NEP
# Type: biochemical
# Conditions: pKi values at human NEP; recombinant human NEP, fluorogenic peptide substrate 10 μM, 37° C.
# Protocol: The inhibitory activities of compounds at human and rat neprilysin (EC 3.4.24.11; NEP) and human angiotensin converting enzyme (ACE) were determined using in vitro assays as described below.
# Recombinant human NEP and recombinant human ACE were obtained commercially (R&D Systems, Minneapolis, Minn., catalog numbers 1182-ZN and 929-ZN, respectively). The fluorogenic peptide substrate Mca-D-Arg-Arg-Leu-Dap-(Dnp)-OH (Medeiros et al. (1997) Braz. J. Med. Biol. Res. 30:1157-62; Anaspec, San Jose, Calif.) and Abz-Phe-Arg-Lys(Dnp)-Pro-OH (Araujo et al. (2000) Biochemistry 39:8519-8525; Bachem, Torrance, Calif.) were used in the NEP and ACE assays respectively.
# The assays were performed in 384-well white opaque plates at 37° C. using the fluorogenic peptide substrates at a concentration of 10 μM in Assay Buffer (NEP: 50 mM HEPES, pH 7.5, 100 mM NaCl, 0.01% polyethylene glycol sorbitan monolaurate (Tween-20), 10 μM ZnSO4; ACE: 50 mM HEPES, pH 7.5, 100 mM NaCl, 0.01% Tween-20, 1 μM ZnSO4).
# Test compounds were assayed over the range of concentrations from […] to 20 μM. Test compounds were added to the enzymes and incubated for 30 minute at 37° C. prior to initiating the reaction by the addition of substrate. Reactions were terminated after 20 minutes of incubation at 37° C. by the addition of glacial acetic acid to a final concentration of 3.6% (v/v).
# Plates were read on a fluorometer with excitation and emission wavelengths set to 320 nm and 405 nm, respectively. Inhibition constants were obtained by nonlinear regression of the data using the equation (GraphPad Software, Inc., San Diego, Calif.): v=v0/[1+(I/K′)] where v is the reaction rate, v0 is the uninhibited reaction rate, I is the inhibitor concentration and K′ is the apparent inhibition constant.
# Compounds of the invention were tested in this assay and found to have pKi values at human NEP as follows.
# T1 sequence (P08473 whole entry): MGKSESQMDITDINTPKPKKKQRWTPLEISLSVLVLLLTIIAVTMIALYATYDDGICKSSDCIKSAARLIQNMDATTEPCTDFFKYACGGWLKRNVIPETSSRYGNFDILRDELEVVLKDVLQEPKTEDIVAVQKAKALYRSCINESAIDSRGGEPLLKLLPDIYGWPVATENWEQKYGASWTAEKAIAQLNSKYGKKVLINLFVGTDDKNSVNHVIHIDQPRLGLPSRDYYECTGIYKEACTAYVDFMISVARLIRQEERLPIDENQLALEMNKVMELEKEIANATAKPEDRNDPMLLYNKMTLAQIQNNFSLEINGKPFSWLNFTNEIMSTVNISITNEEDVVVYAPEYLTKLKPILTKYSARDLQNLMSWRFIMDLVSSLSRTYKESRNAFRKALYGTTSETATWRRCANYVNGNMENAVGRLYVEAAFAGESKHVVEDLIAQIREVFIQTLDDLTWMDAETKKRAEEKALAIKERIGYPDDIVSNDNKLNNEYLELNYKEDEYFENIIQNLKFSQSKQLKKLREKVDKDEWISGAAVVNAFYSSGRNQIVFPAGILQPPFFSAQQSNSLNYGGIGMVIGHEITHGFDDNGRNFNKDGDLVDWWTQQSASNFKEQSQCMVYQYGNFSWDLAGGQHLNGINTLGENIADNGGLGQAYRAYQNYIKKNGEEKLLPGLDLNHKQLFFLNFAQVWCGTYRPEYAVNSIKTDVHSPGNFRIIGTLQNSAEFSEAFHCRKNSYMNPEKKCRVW
row,SMILES,Ki [µM]
1,"O=C1CCC(C(=O)N[C@H](Cc2ccccc2Cl)[C@@H](O)C(=O)O)=NN1 [Example 2-39, (2R,3R)-4-(2-Chloro-phenyl)-2-hydroxy-3-[(6-oxo-1,4,5,6-tetrahydro-pyridazine-3-carbonyl)-amino]-butyric acid]",0.0126 to 0.1
2,"Cc1cc(-c2ccccc2C(=O)O)cc(C(=O)N[C@H](Cc2ccccc2Cl)[C@@H](O)C(=O)O)n1 [Example 2-1, 2-{2-[(1R,2R)-2-Carboxy-1-(2-chloro-benzyl)-2-hydroxy-ethylcarbamoyl]-6-methyl-pyridin-4-yl}-benzoic acid]",≤ 0.001
3,"O=C(N[C@H](Cc1ccccc1Cl)[C@@H](O)C(=O)O)c1cc(-c2cccc(Cl)c2)no1 [Example 2-13, (2R,3R)-4-(2-Chloro-phenyl)-3-{[3-(3-chloro-phenyl)-isoxazole-5-carbonyl]-amino}-2-hydroxy-butyric acid]",0.00126 to 0.01
4,"O=C(N[C@H](Cc1ccccc1Cl)[C@@H](O)C(=O)O)c1ccc(-c2ccccc2C(=O)O)nc1 [Example 2-8, 2-{5-[(1R,2R)-2-Carboxy-1-(2-chloro-benzyl)-2-hydroxy-ethylcarbamoyl]-pyridin-2-yl}-benzoic acid]",0.00126 to 0.01
5,"O=C(N[C@H](Cc1ccccc1Cl)[C@H](O)C(=O)O)c1cc(F)c2nn[nH]c2c1 [Example 2-27, (2S,3R)-4-(2-Chloro-phenyl)-3-[(7-fluoro-3H-benzotriazole-5-carbonyl)-amino]-2-hydroxy-butyric acid]",0.00126 to 0.01
6,"COc1ccc(Cn2oc(C(=O)N[C@H](Cc3ccccc3Cl)[C@@H](O)C(=O)O)cc2=O)c(F)c1F [Example 2-17, (2R,3R)-4-(2-Chloro-phenyl)-3-{[2-(2,3-difluoro-4-methoxy-benzyl)-3-oxo-2,3-dihydro-isoxazole-5-carbonyl]-amino}-2-hydroxy-butyric acid]",0.00126 to 0.01
7,"O=C(N[C@H](Cc1ccccc1Cl)[C@@H](O)C(=O)O)c1cnc(-c2ccccc2C(=O)O)c(Cl)c1 [Example 2-9, 2-{5-[(1R,2R)-2-Carboxy-1-(2-chloro-benzyl)-2-hydroxy-ethylcarbamoyl]-3-chloro-pyridin-2-yl}-benzoic acid]",0.00126 to 0.01
8,"O=C(N[C@H](Cc1ccccc1Cl)[C@@H](O)C(=O)O)c1cc(-c2ccc(Cl)cc2)no1 [Example 2-14, (2R,3R)-4-(2-Chloro-phenyl)-3-{[3-(4-chloro-phenyl)-isoxazole-5-carbonyl]-amino}-2-hydroxy-butyric acid]",0.00126 to 0.01
9,"O=C(N[C@H](Cc1ccccc1Cl)[C@@H](O)C(=O)O)c1cc(-c2ccccc2Cl)on1 [Example 2-15, (2R,3R)-4-(2-Chloro-phenyl)-3-{[5-(2-chloro-phenyl)-isoxazole-3-carbonyl]-amino}-2-hydroxy-butyric acid]",0.00126 to 0.01
10,"O=C(N[C@H](Cc1ccccc1Cl)[C@@H](O)C(=O)O)c1cc(=O)n(Cc2ccc(Cl)cc2F)o1 [Example 2-16, (2R,3R)-3-{[2-(4-Chloro-2-fluoro-benzyl)-3-oxo-2,3-dihydro-isoxazole-5-carbonyl]-amino}-4-(2-chloro-phenyl)-2-hydroxy-butyric acid]",0.00126 to 0.01
11,"O=C(N[C@H](Cc1ccccc1Cl)[C@@H](O)C(=O)O)c1cnc(O)nc1 [Example 2-35, (2R,3R)-4-(2-Chloro-phenyl)-2-hydroxy-3-[(2-hydroxy-pyrimidine-5-carbonyl)-amino]-butyric acid]",≤ 0.001
12,"O=C(N[C@H](Cc1ccccc1Cl)[C@@H](O)C(=O)O)c1cc2n(n1)CCOc1ccccc1-2 [Example 2-26, (2R,3R)-4-(2-Chloro-phenyl)-3-[(4,5-dihydro-6-oxa-3,3a-diaza-benzo[e]azulene-2-carbonyl)-amino]-2-hydroxy-butyric acid]",0.00126 to 0.01
13,"O=C(N[C@H](Cc1ccccc1C(F)(F)F)[C@@H](O)C(=O)O)c1cnc2[nH]nnc2c1 [Example 3, (2R,3R)-2-Hydroxy-3-[(3H-[1,2,3]triazolo[4,5-b]pyridine-6-carbonyl)-amino]-4-(2-trifluoromethyl-phenyl)-butyric acid]",0.00126 to 0.01
14,"O=C(N[C@H](Cc1ccccc1Cl)[C@@H](O)C(=O)O)c1cncc(-c2ccccc2C(=O)O)c1 [Example 2-5, 2-{5-[(1R,2R)-2-Carboxy-1-(2-chloro-benzyl)-2-hydroxy-ethylcarbamoyl]-pyridin-3-yl}-benzoic acid]",0.00126 to 0.01
15,"O=C(N[C@H](Cc1ccccc1Cl)[C@@H](O)C(=O)O)c1cnc(-c2ccccc2C(=O)O)c(F)c1 [Example 2-10, 2-{5-[(1R,2R)-2-Carboxy-1-(2-chloro-benzyl)-2-hydroxy-ethylcarbamoyl]-3-fluoro-pyridin-2-yl}-benzoic acid]",0.00126 to 0.01
16,"O=C(N[C@H](Cc1ccccc1Cl)[C@@H](O)C(=O)O)c1cnc(O)cn1 [Example 2-34, (2R,3R)-4-(2-Chloro-phenyl)-2-hydroxy-3-[(5-hydroxy-pyrazine-2-carbonyl)-amino]-butyric acid]",0.0126 to 0.1
17,"O=C(N[C@H](Cc1ccccc1Cl)[C@@H](O)C(=O)O)c1cn(Cc2ccccc2)nn1 [Example 2-20, (2R,3R)-3-[(1-Benzyl-1H-[1,2,3]triazole-4-carbonyl)-amino]-4-(2-chloro-phenyl)-2-hydroxy-butyric acid]",0.0126 to 0.1
18,"Cc1nc(C(=O)N[C@H](Cc2ccccc2Cl)[C@@H](O)C(=O)O)nn1-c1ccc(Cl)cc1 [Example 2-22, (2R,3R)-4-(2-Chloro-phenyl)-3-{[1-(4-chloro-phenyl)-5-methyl-1H-[1,2,4]triazole-3-carbonyl]-amino}-2-hydroxy-butyric acid]",0.0126 to 0.1

# The remaining lines, values ahead:
row,Ki [µM],SMILES
1,0.0126 to 0.1,"O=C(N[C@H](Cc1ccccc1)[C@@H](O)C(=O)O)c1cc(F)c2[nH]nnc2c1 [Example 5-16, (2R,3R)-3-[(7-Fluoro-1H-benzotriazole-5-carbonyl)-amino]-2-hydroxy-4-phenyl-butyric acid]"
2,0.0126 to 0.1,"CCCc1nc2c(C)cc(C(=O)N[C@H](Cc3ccccc3)[C@@H](O)C(=O)O)cc2n1CC(N)=O [Example 5-8, (2R,3R)-3-[(3-Carbamoylmethyl-7-methyl-2-propyl-3H-benzoimidazole-5-carbonyl)-amino]-2-hydroxy-4-phenyl-butyric acid]"
3,0.0126 to 0.1,"CCCc1nc2c(C)cc(C(=O)N[C@H](Cc3ccccc3)[C@@H](O)C(=O)O)cc2n1Cc1ccccc1OC [Example 5-6, (2R,3R)-2-Hydroxy-3-{[3-(2-methoxy-benzyl)-7-methyl-2-propyl-3H-benzoimidazole-5-carbonyl]-amino}-4-phenyl-butyric acid]"
4,0.0126 to 0.1,"O=C(O)c1cnc(C(=O)N[C@H](Cc2ccccc2)[C@@H](O)C(=O)O)cn1 [Example 5-18, 5-((1R,2R)-1-Benzyl-2-carboxy-2-hydroxy-ethylcarbamoyl)-pyrazine-2-carboxylic acid]"
5,0.0126 to 0.1,"O=C(O)C[C@@H](Cc1ccccc1Cl)NC(=O)c1cnn[nH]1 [Example 7-1, (R)-4-(2-Chloro-phenyl)-3-[(3H-[1,2,3]triazole-4-carbonyl)-amino]-butyric acid]"
6,0.0126 to 0.1,"CCCc1nc2c(C)cc(C(=O)N[C@H](Cc3ccccc3)[C@@H](O)C(=O)O)cc2n1Cc1ccc(Br)nc1 [Example 5-2, (2R,3R)-3-{[3-(6-Bromo-pyridin-3-ylmethyl)-7-methyl-2-propyl-3H-benzoimidazole-5-carbonyl]-amino}-2-hydroxy-4-phenyl-butyric acid]"
7,0.00126 to 0.01,"O=C(O)C[C@@H](Cc1ccccc1Cl)NC(=O)c1cnc(O)nc1 [Example 7-8, (R)-4-(2-Chloro-phenyl)-3-[(2-hydroxy-pyrimidine-5-carbonyl)-amino]-butyric acid]"
8,0.0126 to 0.1,"O=C(N[C@H](Cc1ccccc1)[C@@H](O)C(=O)O)c1ccc2nn[nH]c2c1 [Example 5-11, (2R,3R)-3-[(3H-Benzotriazole-5-carbonyl)-amino]-2-hydroxy-4-phenyl-butyric acid]"
9,0.00126 to 0.01,"O=C(N[C@H](Cc1ccccc1)[C@@H](O)C(=O)O)c1ccnc(-c2ccccc2C(=O)O)c1 [Example 5-22, 2-[4-((1R,2R)-1-Benzyl-2-carboxy-2-hydroxy-ethylcarbamoyl)-pyridin-2-yl]-benzoic acid]"
10,0.0126 to 0.1,"O=C(N[C@H](Cc1ccccc1)[C@@H](O)C(=O)O)c1ccc2c(c1)N1CCCC1C(=O)N2 (stereo partly drawn) [Example 5-1, (2R,3R)-2-Hydroxy-3-[(4-oxo-1,2,3,3a,4,5-hexahydro-pyrrolo[1,2-a]quinoxaline-8-carbonyl)-amino]-4-phenyl-butyric acid]"
11,0.0126 to 0.1,"Cc1cc(C(=O)N[C@@H](CC(=O)O)Cc2ccccc2Cl)cc2[nH]nnc12 [Example 7-2, (R)-4-(2-Chloro-phenyl)-3-[(7-methyl-3H-benzotriazole-5-carbonyl)-amino]-butyric acid]"
12,0.0126 to 0.1,"O=C(O)C[C@@H](Cc1ccccc1Cl)NC(=O)c1ccc2nn[nH]c2c1 [Example 7-3, (R)-3-[(3H-Benzotriazole-5-carbonyl)-amino]-4-(2-chloro-phenyl)-butyric acid]"
